The text below walks through data of PubChem BioAssay AID328 (DTP/NCI, 2004).

For the assay, the system named is BDF1 mice, P388 leukemia ip, median survival T/C. Briefly: NCI In Vivo Anticancer Drug Screen. Data for tumor model P388 Leukemia (intraperitoneal) in B6D2F1 (BDF1) mice. The conditions noted are these: endpoint: median survival time, higher = longer survival. The procedure, abridged: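 Steps: implant the tumour, treat one group with compound and another with vehicle, record survival, then divide treated by control.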

Where [1] appears, read: dose: 1.25 mg/kg/injection, schedule: Q01DX009 (ip), vehicle: saline.
[2] abbreviates: dose: 2.5 mg/kg/injection, schedule: Q01DX009 (ip), vehicle: saline.
[3] abbreviates: dose: 200.0 mg/kg/injection, schedule: Q01DX009 (ip), vehicle: Klucel (hydroxypropylcellulose) (HPC).
[4] abbreviates: dose: 100.0 mg/kg/injection, schedule: Q01DX009 (ip), vehicle: saline with Tween-80.
[5] abbreviates: dose: 200.0 mg/kg/injection, schedule: Q01DX009 (ip), vehicle: saline with Tween-80.
Where [6] appears, read: dose: 100.0 mg/kg/injection, schedule: Q04DX003 (ip), vehicle: saline with Tween-80.
Where [7] appears, read: dose: 200.0 mg/kg/injection, schedule: Q04DX003 (ip), vehicle: saline with Tween-80.
Setting [8] is: dose: 50.0 mg/kg/injection, schedule: Q01DX009 (ip), vehicle: saline with Tween-80.

Molecules are shown by their SMILES. Where “and” joins values, the source holds several entries; their conditions need not be identical. Equal entries are not always repeated. Toxic doses and inconclusive results are not listed.

Regarding `CS(=O)(=O)Nc1ccc(Nc2c3ccccc3nc3cc(N)ccc23)cc1`, the T/C was 205 % of control (dose: 0.22 mg/kg/injection, schedule: Q01DX009 (ip), vehicle: saline); 205 % of control (dose: 0.33 mg/kg/injection, schedule: Q01DX009 (ip), vehicle: saline); 159 % of control (dose: 0.44 mg/kg/injection, schedule: Q04DX003 (ip), vehicle: saline); 222 % of control (dose: 0.5 mg/kg/injection, schedule: Q01DX009 (ip), vehicle: saline); 222 % of control (dose: 0.56 mg/kg/injection, schedule: Q01DX009 (ip), vehicle: saline); 168 % of control (dose: 0.66 mg/kg/injection, schedule: Q04DX003 (ip), vehicle: saline). In addition, the T/C is 253 % of control (dose: 0.75 mg/kg/injection, schedule: Q01DX009 (ip), vehicle: saline); 275 % of control (dose: 0.83 mg/kg/injection, schedule: Q01DX009 (ip), vehicle: saline); 154 % of control (dose: 1.0 mg/kg/injection, schedule: Q04DX003 (ip), vehicle: saline); 268 % of control and 271 % of control under setting [1]; 190 % of control (dose: 1.5 mg/kg/injection, schedule: Q04DX003 (ip), vehicle: saline); 111 % of control (dose: 1.87 mg/kg/injection, schedule: Q01DX009 (ip), vehicle: saline). The T/C reads like this: under setting [2], 97 % of control; (dose: 2.9 mg/kg/injection, schedule: Q04DX003 (ip), vehicle: saline) 245 % of control; (dose: 4.4 mg/kg/injection, schedule: Q04DX003 (ip), vehicle: saline) 168 % of control; (dose: 6.6 mg/kg/injection, schedule: Q04DX003 (ip), vehicle: saline) 281 % of control; (dose: 10.0 mg/kg/injection, schedule: Q04DX003 (ip), vehicle: saline) 195 % of control.

As for `Nc1cc(Cl)ncn1`, the T/C runs as follows: (dose: 60.0 mg/kg/injection, schedule: Q01DX009 (ip), vehicle: saline) 100 % of control; (dose: 90.0 mg/kg/injection, schedule: Q01DX009 (ip), vehicle: saline) 97 % of control; (dose: 175.0 mg/kg/injection, schedule: Q01DX009 (ip), vehicle: saline) 97 % of control; under setting [3], 95 % of control.

Consider `CC(C)Cn1c(Cl)c(/C=N\Nc2ccccc2[N+](=O)[O-])c2ccccc21`, for which the T/C runs as follows: (dose: 100.0 mg/kg/injection, schedule: Q04DX002 (ip), vehicle: Klucel (hydroxypropylcellulose) (HPC)) 92 % of control; (dose: 200.0 mg/kg/injection, schedule: Q04DX002 (ip), vehicle: Klucel (hydroxypropylcellulose) (HPC)) 99 % of control.

Consider `CC(=O)CC(=O)OCc1ccccc1`, for which the T/C runs as follows: under setting [4], 100 % of control; under setting [5], 118 % of control; (dose: 400.0 mg/kg/injection, schedule: Q01DX009 (ip), vehicle: saline with Tween-80) 100 % of control.

Take `CC([NH-])C(=O)O.CC([NH-])C(=O)O.CC([NH-])C(=O)O.[Co+3]` (stereo not drawn): the T/C (dose: 25.0 mg/kg/injection, schedule: Q01DX009 (ip), vehicle: water) was 103 % of control; the T/C (dose: 50.0 mg/kg/injection, schedule: Q01DX009 (ip), vehicle: water) is 92 % of control; the T/C (dose: 100.0 mg/kg/injection, schedule: Q01DX009 (ip), vehicle: water) was 92 % of control; the T/C (dose: 100.0 mg/kg/injection, schedule: Q04DX003 (ip), vehicle: water) was 116 % of control; the T/C (dose: 200.0 mg/kg/injection, schedule: Q04DX003 (ip), vehicle: water) was 90 % of control.

Consider `COC(=O)C(Br)C(OC)c1ccc(Cl)cc1` (stereo not drawn), for which the T/C by setting is: under setting [6], 109 % of control; under setting [7], 109 % of control; (dose: 400.0 mg/kg/injection, schedule: Q04DX003 (ip), vehicle: saline with Tween-80) 118 % of control.

`Cc1ccc(-c2nc3ccccc3c(=O)n2/N=C/c2cccc3ccccc23)cc1`: the T/C under setting [8] is 90 % of control and the T/C under setting [4] was 89 % of control.

For the compound `NC(=O)c1ccc[n+](Cc2c(Cl)cccc2Cl)c1`, the T/C is, setting by setting: (dose: 0.29 mg/kg/injection, schedule: Q01DX009 (ip), vehicle: saline) 105 % of control; (dose: 0.44 mg/kg/injection, schedule: Q01DX009 (ip), vehicle: saline) 115 % of control; (dose: 1.2 mg/kg/injection, schedule: Q04DX003 (ip), vehicle: saline) 122 % of control; under setting [1], 96 % of control; (dose: 1.56 mg/kg/injection, schedule: Q01DX009 (ip), vehicle: saline) 160 % of control; under setting [2], 96 % of control. The T/C was 185 % of control (dose: 3.12 mg/kg/injection, schedule: Q01DX009 (ip), vehicle: saline); 168 % of control (dose: 4.12 mg/kg/injection, schedule: Q01DX009 (ip), vehicle: saline); 96 % of control (dose: 5.0 mg/kg/injection, schedule: Q01DX009 (ip), vehicle: saline); 154 % of control and 191 % of control and 200 % of control (dose: 6.25 mg/kg/injection, schedule: Q01DX009 (ip), vehicle: saline); 163 % of control (dose: 8.9 mg/kg/injection, schedule: Q04DX003 (ip), vehicle: saline); 94 % of control (dose: 10.0 mg/kg/injection, schedule: Q01DX009 (ip), vehicle: saline). In addition, the T/C runs as follows: (dose: 13.5 mg/kg/injection, schedule: Q04DX003 (ip), vehicle: saline) 154 % of control and 158 % of control; (dose: 20.0 mg/kg/injection, schedule: Q01DX009 (ip), vehicle: saline) 109 % of control.

Turning to `COc1cccc2c1C(=O)c1c(O)c3c(c(O)c1C2=O)C[C@@](O)(C(C)=O)C[C@@H]3OC1CC(NC=O)C(O)C(C)O1` (stereo partly drawn), the T/C is 108 % of control and 110 % of control (dose: 0.25 mg/kg/injection, schedule: Q01DX009 (ip), vehicle: water); 110 % of control and 117 % of control (dose: 0.5 mg/kg/injection, schedule: Q01DX009 (ip), vehicle: water); 107 % of control (dose: 1.0 mg/kg/injection, schedule: Q01DX009 (ip), vehicle: water); 186 % of control (dose: 2.0 mg/kg/injection, schedule: Q01DX009 (ip), vehicle: water); 205 % of control (dose: 4.0 mg/kg/injection, schedule: Q01DX009 (ip), vehicle: water); 169 % of control (dose: 8.0 mg/kg/injection, schedule: Q01DX009 (ip), vehicle: water).

For `NC(=NCCCC(NC(=O)OCc1ccccc1)C(=O)NC(Cc1ccccc1)C(=O)OCc1ccccc1)NC(=O)OCc1ccccc1` (stereo not drawn), the T/C (dose: 12.5 mg/kg/injection, schedule: Q01DX005 (ip), vehicle: saline with Tween-80) is 92 % of control; the T/C (dose: 25.0 mg/kg/injection, schedule: Q01DX005 (ip), vehicle: saline with Tween-80) is 92 % of control; the T/C (dose: 50.0 mg/kg/injection, schedule: Q01DX005 (ip), vehicle: saline with Tween-80) was 90 % of control and 101 % of control; the T/C (dose: 100.0 mg/kg/injection, schedule: Q01DX005 (ip), vehicle: saline with Tween-80) is 97 % of control; the T/C (dose: 200.0 mg/kg/injection, schedule: Q01DX005 (ip), vehicle: saline with Tween-80) is 107 % of control.

For the compound `CNc1ccccc1C#N`, the T/C reads like this: (dose: 100.0 mg/kg/injection, schedule: Q01DX009 (ip), vehicle: Klucel (hydroxypropylcellulose) (HPC)) 100 % of control; (dose: 100.0 mg/kg/injection, schedule: Q04DX003 (ip), vehicle: Klucel (hydroxypropylcellulose) (HPC)) 91 % of control; under setting [3], 100 % of control; (dose: 400.0 mg/kg/injection, schedule: Q04DX003 (ip), vehicle: Klucel (hydroxypropylcellulose) (HPC)) 91 % of control.

Regarding `CS(=O)(=O)OCCN(CCOS(C)(=O)=O)c1ccccc1`, the T/C runs as follows: (dose: 16.5 mg/kg/injection, schedule: Q04DX003 (ip), vehicle: saline with Tween-80) 150 % of control; (dose: 16.5 mg/kg/injection, schedule: Q04DX003 (ip), vehicle: saline) 113 % of control; (dose: 37.5 mg/kg/injection, schedule: Q04DX003 (ip), vehicle: saline with Tween-80) 222 % of control.

With `Cc1ncnc2c1CCC2`, the T/C was 97 % of control under setting [8]; 111 % of control under setting [4]; 109 % of control under setting [6]; 87 % of control under setting [5]; 95 % of control under setting [7].
